Results: the NIST ThermoML archive (doi:10.1016/j.fluid.2010.12.012)

Assay: wn = mass fraction of the nth substance listed
Settings: 294.9 K, Liquid; for viscosity: Cone and plate viscometry; for mass density: Vibrating tube method

CC [ethane] + CO
Settings	mass density [kg/m3]	viscosity [mPa·s]
1196 kPa, w1 = 0.056	750	0.54
2123 kPa, w1 = 0.12	720	0.43
3130 kPa, w1 = 0.225	671	0.32
